One assay has as its system A. baumannii S-12 strain. As to the kind of experiment: Time-kill study, viable bacterial count in broth, A. baumannii S-12. It is filed as cell-based, Acinetobacter baumannii. As for the experimental part:
(§1) The antibacterial activity of compositions according to the invention against various bacterial strains was investigated. In a typical study, freshly grown cultures were diluted to required cell density (initial starting inoculum) in Brain Heart Infusion broth medium (BD, USA). The antibacterial agents (either alone or in combination) in required concentrations were added into the culture containing medium. The samples were incubated under shaking conditions (120 rpm) at 37° C. Enumeration of viable bacterial count was undertaken, every 2 hours, by diluting in normal saline and plating on to Tryptic Soya Agar plates (BD, USA). The plates were incubated for 24 hours to arrive at a viable bacterial count.

The next assay has as its system A. baumannii S-5 strain. Nature of the assay: Mouse Systemic Infection Model. As to conditions: agent alone; Swiss albino mice, subcutaneous TID from 1 hour post infection, survival over 10 days.
Assay [1] concerns A. baumannii S-224 strain. As to the kind of experiment: Time-kill study, viable bacterial count in broth, A. baumannii S-224. Format: cell-based, Acinetobacter baumannii. The protocol: as §1
A. baumannii S-224 strain expresses both Class D beta-lactamases (OXA-51 and OXA-23 like) and Class B metalo-beta-lactamases (NDM).

`C[C@@H](O)[C@H]1C(=O)N2C(C(=O)O)=C(SCCN=CN)C[C@H]12` [Imipenem]: the Bacterial count in the assay on A. baumannii S-12 strain (Imipenem 8 mcg/ml, 0 hour) was found to be 6.87 log CFU/ml; in the assay with A. baumannii S-12 strain (Imipenem 8 mcg/ml, 2 hours), 7.69 log CFU/ml; in the assay on A. baumannii S-12 strain (Imipenem 8 mcg/ml, 4 hours), 8.27 log CFU/ml; in the assay with A. baumannii S-12 strain (Imipenem 8 mcg/ml, 6 hours) it was 8.27 log CFU/ml; in the assay with A. baumannii S-12 strain (Imipenem 16 mcg/ml, 0 hour) it was 6.87 log CFU/ml; with A. baumannii S-12 strain (Imipenem 16 mcg/ml, 2 hours), 7.69 log CFU/ml. Besides, the Bacterial count with A. baumannii S-12 strain (Imipenem 16 mcg/ml, 4 hours) turned out to be 8.11 log CFU/ml; with A. baumannii S-12 strain (Imipenem 16 mcg/ml, 6 hours) it was 7.84 log CFU/ml; in assay [1] (Imipenem 8 mcg/ml, 0 hour), 6.74 log CFU/ml; in assay [1] (Imipenem 8 mcg/ml, 2 hours), 7.20 log CFU/ml; in assay [1] (Imipenem 8 mcg/ml, 4 hours), 8.11 log CFU/ml; in assay [1] (Imipenem 8 mcg/ml, 6 hours), 8.04 log CFU/ml. In addition, the Bacterial count is 6.74 log CFU/ml in assay [1] (Imipenem 16 mcg/ml, 0 hour); 7.17 log CFU/ml in assay [1] (Imipenem 16 mcg/ml, 2 hours); 8.04 log CFU/ml in assay [1] (Imipenem 16 mcg/ml, 4 hours); 7.90 log CFU/ml in assay [1] (Imipenem 16 mcg/ml, 6 hours). The ED50 with A. baumannii S-5 strain was >50 mg/kg body weight. For the same compound, the ED90 in the assay on A. baumannii S-5 strain is given as >50 mg/kg body weight.

Turning to `CC1(C)[C@H](C(=O)O)N2C(=O)C[C@H]2S1(=O)=O` [Sulbactam], in the assay on A. baumannii S-12 strain (S-12 strain), the “Decrease in number of colony forming units (in words)” value is “not observed”. In addition, the Bacterial count was found to be 6.87 log CFU/ml in the assay with A. baumannii S-12 strain (Sulbactam 16 mcg/ml, 0 hour); 5.84 log CFU/ml in the assay on A. baumannii S-12 strain (Sulbactam 16 mcg/ml, 2 hours); 5.27 log CFU/ml in the assay on A. baumannii S-12 strain (Sulbactam 16 mcg/ml, 4 hours); 6.23 log CFU/ml with A. baumannii S-12 strain (Sulbactam 16 mcg/ml, 6 hours); 6.74 log CFU/ml in assay [1] (Sulbactam 16 mcg/ml, 0 hour); 6.65 log CFU/ml in assay [1] (Sulbactam 16 mcg/ml, 2 hours). Besides, the Bacterial count amounted to 7.17 log CFU/ml in assay [1] (Sulbactam 16 mcg/ml, 4 hours) and 7.27 log CFU/ml in assay [1] (Sulbactam 16 mcg/ml, 6 hours).
